≈ marks a conversion by molar mass, not a printed value. Read-outs that look alike come from different tables or passages of the source. Positions of bridges follow the written chain, without caps; N, C: chain ends. Residues, ends and D or L forms follow the SMILES beside them.
Columns and labels:
P. aeruginosa ATCC 27853 = type: cell-based, Pseudomonas aeruginosa; conditions: ATCC 27853, 24 h
Method: (§1) The antimicrobial activity of the peptides was determined using two-fold serial dilutions in sterile 96-well flat-bottom polystyrene microplates (Eppendorf, Hamburg, Germany) (Cat. No. 0030730011), as previously described. The following strains of bacteria were used: E. coli ATCC 25922, E. coli ML35p (ATCC collection), E. coli BW 25113 (Keio collection), Pseudomonas aeruginosa PAO1 (ATCC collection), P. aeruginosa ATCC 27853, Klebsiella pneumoniae ATCC 700603, Staphylococcus aureus 209P (ATCC collection), S. aureus ATCC 29213, and Micrococcus luteus B-1314 (VKM collection). Acinetobacter baumannii (strain XDR CI 2675) was provided by the I.M. Sechenov First Moscow State Medical University hospital. After a 24 h incubation period, the metabolic activity of the bacteria was assessed by adding 20 µL of a redox indicator, resazurin (Sigma-Aldrich, St. Louis, MO, USA), at a concentration of 0.1 mg/mL, to the wells. The plate was then incubated for a further two hours. The minimum inhibitory concentration (MIC) was determined as the lowest concentration of the peptide at which no color change in the resazurin indicator was observed. The results were presented as median values, which were determined based on at least three independent experiments carried out in triplicate.

P. aeruginosa PAO1 = type: cell-based, Pseudomonas aeruginosa; conditions: PAO1, 24 h
Method: as §1

[1] = tested on: human keratinocyte cell line (HaCaT); experiment: Cytotoxicity MTT assay; type: cell-based; conditions: 18 h, 128
Method: In order to evaluate the cytotoxicity of the peptides against a human keratinocyte cell line (HaCaT, Cat. No. 300493) (Cell Lines Service, Köln, Germany), the colorimetric 3-(4,5-dimethylthiazol-2-yl)-2,5-diphenyltetrazolium bromide (MTT) dye reduction assay was performed, as described in a previous publication. Wells containing no peptide were used as a 100% survival control. Each peptide was tested in two separate experiments to ensure the reliability of the results.

M. luteus B-1314 = type: cell-based, Micrococcus luteus; conditions: B-1314, 24 h
Method: as §1

[2] = tested on: K. pneumoniae ATCC 700603; type: cell-based, Klebsiella pneumoniae; conditions: ATCC 700603, 24 h
Method: as §1

[3] = tested on: freshly isolated human erythrocytes (hRBCs); experiment: Hemolysis assay (hemoglobin release); type: cell-based; conditions: red cells of human, 64
Text: To assess the hemolytic activity of the compounds, freshly isolated human erythrocytes (hRBCs) were used according to the methodology described in a previous study. Melittin was used as a positive peptide control that induces significant hemolysis. Isotonic phosphate buffer (PBS) served as a negative control, while 0.1% Triton X-100 solution was used as a control for complete hemolysis.

[4] = tested on: Acinetobacter baumannii (strain XDR CI 2675); type: cell-based
Method: as §1

E. coli BW 25113 = type: cell-based; conditions: two-fold serial dilutions, 24 h incubation, resazurin read-out; median of at least three independent experiments in triplicate
Method: as §1

E. coli ML35p = type: cell-based
Method: as §1

E. coli ATCC 25922 = type: cell-based; conditions: ATCC 25922, 24 h
Method: as §1

S. aureus 209P = type: cell-based, Staphylococcus aureus; conditions: 24 h
Method: as §1

S. aureus ATCC 29213 = type: cell-based, Staphylococcus aureus; conditions: ATCC 29213, 24 h
Method: as §1

SMILES	MIC, P. aeruginosa ATCC 27853 (P. aeruginosa ATCC 27853)	MIC, P. aeruginosa PAO1 (P. aeruginosa PAO1)	Cell Viability, % (128 μM) [1]	MIC, M. luteus B-1314 (M. luteus B-1314)	MIC, K. pneumoniae ATCC 700603 [2]	Hemolytic activity, % (64 μM) [3]	MIC, A. baumannii ([4]; strain XDR CI 2675, 24 h)	MIC, E. coli BW 25113 (E. coli BW 25113)	MIC, E. coli ML35p (E. coli ML35p; ML35p, 24 h)	MIC, E. coli ATCC 25922 (E. coli ATCC 25922)	MIC, S. aureus 209P (S. aureus 209P)	MIC, S. aureus ATCC 29213 (S. aureus ATCC 29213)	MIC, A. baumannii ([4]; strain XDR CI 2675, two-fold serial dilutions, 24 h incubation, resazurin read-out, median of at least three independent experiments in triplicate)	MIC, E. coli ML35p (E. coli ML35p; two-fold serial dilutions, 24 h incubation, resazurin read-out, median of at least three independent experiments in triplicate)
CC(C)[C@H](NC(=O)[C@@H]1CSSC[C@H](NC(=O)[C@H](C)NC(=O)[C@H](CCCNC(=N)N)NC(=O)CNC(=O)CNC(=O)[C@@H](N)CCCNC(=N)N)C(=O)N[C@@H](Cc2ccc(O)cc2)C(=O)N[C@H]2CSSC[C@H](NC(=O)[C@H](Cc3ccccc3)NC(=O)[C@H](CCCNC(=N)N)NC(=O)[C@H](CCCNC(=N)N)NC(=O)[C@H](CCCNC(=N)N)NC2=O)C(=O)N[C@@H](C)C(=O)N1)C(=O)NCC(=O)N[C@@H](CCCNC(=N)N)C(=O)O [[L5A,V14A]] (H-RGGRACYCRRRFCACVGR-OH; disulfide 6-15, 8-13; N-terminus and C-terminus assumed)	1 µM (≈ 2.09 µg/mL)	1 µM (≈ 2.09 µg/mL)	38.3 (± 7.19) %	4 µM (≈ 8.35 µg/mL)	8 µM (≈ 16.7 µg/mL)	4.2 (±1.08) %	0.25 µM (≈ 0.522 µg/mL)	0.5 µM (≈ 1.04 µg/mL)	0.5 µM (≈ 1.04 µg/mL)	0.5 µM (≈ 1.04 µg/mL)	4 µM (≈ 8.35 µg/mL)	>32 µM		
CC(C)[C@@H]1NC(=O)[C@@H]2CSSC[C@H](NC(=O)[C@H](Cc3ccc(O)cc3)NC(=O)[C@@H](NC(=O)[C@H](C)NC(=O)[C@H](CCCNC(=N)N)NC(=O)CNC(=O)CNC(=O)[C@@H](N)CCCNC(=N)N)CSSC[C@@H](C(=O)N[C@@H](C)C(=O)NCC(=O)N[C@@H](CCCNC(=N)N)C(=O)O)NC1=O)C(=O)N[C@@H](CCCNC(=N)N)C(=O)N[C@@H](CCCNC(=N)N)C(=O)N[C@@H](CCCNC(=N)N)C(=O)N[C@@H](Cc1ccccc1)C(=O)N2 [[L5A,V16A]] (H-RGGRACYCRRRFCVCAGR-OH; disulfide 6-15, 8-13; N-terminus and C-terminus assumed)	1 µM (≈ 2.09 µg/mL)	1 µM (≈ 2.09 µg/mL)	17.0 (± 2.18) %	4 µM (≈ 8.35 µg/mL)	8 µM (≈ 16.7 µg/mL)	3.6 (±1.72) %	0.25 µM (≈ 0.522 µg/mL)	0.5 µM (≈ 1.04 µg/mL)	0.5 µM (≈ 1.04 µg/mL)	0.5 µM (≈ 1.04 µg/mL)	4 µM (≈ 8.35 µg/mL)	>32 µM		
CC(C)C[C@H](NC(=O)[C@H](CCCNC(=N)N)NC(=O)CNC(=O)CNC(=O)[C@@H](N)CCCNC(=N)N)C(=O)N[C@H]1CSSC[C@@H](C(=O)N[C@@H](CCCNC(=N)N)C(=O)NCC(=O)N[C@@H](CCCNC(=N)N)C(=O)O)NC(=O)[C@H](C(C)C)NC(=O)[C@@H]2CSSC[C@H](NC(=O)[C@H]([C@@H](C)O)NC1=O)C(=O)N[C@@H](CCCNC(=N)N)C(=O)N[C@@H](CCCNC(=N)N)C(=O)N[C@@H](CCCNC(=N)N)C(=O)N[C@@H](Cc1ccccc1)C(=O)N2 [[Y7T,V16R]] (H-RGGRLCTCRRRFCVCRGR-OH; disulfide 6-15, 8-13; N-terminus and C-terminus assumed)	>32 µM	>32 µM	72.8 (± 5.46) %	4 µM (≈ 8.61 µg/mL)	>32 µM	1.4 (±0.66) %	4 µM (≈ 8.61 µg/mL)	8 µM (≈ 17.2 µg/mL)	4 µM (≈ 8.61 µg/mL)	8 µM (≈ 17.2 µg/mL)	>32 µM	>32 µM		
CC(C)C[C@H](NC(=O)[C@H](CCCNC(=N)N)NC(=O)CNC(=O)CNC(=O)[C@@H](N)CCCNC(=N)N)C(=O)N[C@H]1CSSC[C@@H](C(=O)N[C@H](C(=O)NCC(=O)N[C@@H](CCCNC(=N)N)C(=O)O)C(C)C)NC(=O)[C@H](C(C)C)NC(=O)[C@@H]2CSSC[C@H](NC(=O)[C@H]([C@@H](C)O)NC1=O)C(=O)N[C@@H](CCCNC(=N)N)C(=O)N[C@@H](CCCNC(=N)N)C(=O)N[C@@H](CCCNC(=N)N)C(=O)N[C@@H](Cc1ccccc1)C(=O)N2 [[Y7T]] (H-RGGRLCTCRRRFCVCVGR-OH; disulfide 6-15, 8-13; N-terminus and C-terminus assumed)	2 µM (≈ 4.19 µg/mL)	2 µM (≈ 4.19 µg/mL)	15.0 (± 1.62) %	4 µM (≈ 8.38 µg/mL)	8 µM (≈ 16.8 µg/mL)	4.0 (±2.54) %		0.5 µM (≈ 1.05 µg/mL)		1 µM (≈ 2.09 µg/mL)	16 µM (≈ 33.5 µg/mL)	16 µM (≈ 33.5 µg/mL)	0.5 µM (≈ 1.05 µg/mL)	0.5 µM (≈ 1.05 µg/mL)
